The record followed here is ChEMBL document CHEMBL3045599, “SYNTHESIS, ANOREXIGENIC ACTIVITY AND QSAR OF SUBSTITUTED ARYLOXYPROPANOLAMINES” (Med Chem Res, 2004).

For data set [1], the system named is Mus musculus. The data set is described as follows: Anorexigenic activity in Mus musculus Swiss (mouse) at 75 umol/kg, ip measured for 15 min relative to control. Format: functional.
Data set [2] deals with Mus musculus. The data set is described as follows: Effect on CNS in Mus musculus Swiss (mouse) assessed as reversal of resperine-induced ptosis at 75 umol/kg, ip. Format: ADME, organism-based, Central nervous system. Particulars: in vivo.
In data set [3] the test system is Mus musculus. As to the kind of experiment: Antidepressant activity in Mus musculus Swiss (mouse) at 75 umol/kg, ip. Format: functional, organism-based.
Data set [4] concerns Mus musculus. As to the kind of experiment: Effect on CNS in Mus musculus Swiss (mouse) assessed as gross behavioural effects at 75 umol/kg, ip. Format: ADME, organism-based, Central nervous system. Conditions: in vivo.
Data set [5] deals with Mus musculus. The data set is described as follows: Effect on CNS in Mus musculus Swiss (mouse) assessed as reversal of resperine-induced sedation at 75 umol/kg, ip. Format: ADME, organism-based, Central nervous system. Conditions: in vivo.

The source made the active and inactive calls. The rule behind the calls is not given here.

With `CN(CCC(Oc1ccc(C(F)(F)F)cc1)c1ccccc1)CC(O)COc1ccc2ccccc2c1` (stereo not drawn), the Activity with Mus musculus [1] is 40%; with Mus musculus [2] it was “Non-toxic”; in the data set on Mus musculus [4] it was “Non-toxic”; with Mus musculus [5], “Non-toxic”. For the same molecule, in the data set with Mus musculus [3], the outcome was inactive.

As to `CCC(=O)c1ccc(OCC(O)CN(C)CCC(Oc2ccc(C(F)(F)F)cc2)c2ccccc2)cc1` (stereo not drawn), the Activity in the data set on Mus musculus [1] is reported as 36%; with Mus musculus [2], “Non-toxic”; in the data set with Mus musculus [4] it was “Non-toxic”; with Mus musculus [5], “Non-toxic”. Besides, the outcome in the data set with Mus musculus [3] was inactive.

With `CN(CCC(Oc1ccc(C(F)(F)F)cc1)c1ccccc1)CC(O)COc1ccccc1` (stereo not drawn), the Activity is 52% with Mus musculus [1], “Non-toxic” in the data set with Mus musculus [2], “Non-toxic” in the data set on Mus musculus [4] and “Non-toxic” in the data set with Mus musculus [5]. In addition, the result with Mus musculus [3] was inactive.

Consider `CN(CCC(Oc1ccc(C(F)(F)F)cc1)c1ccccc1)CC(O)COc1ccc(C=O)cc1` (stereo not drawn), for which the Activity is on record as 40% in the data set with Mus musculus [1], “Non-toxic” in the data set with Mus musculus [2], “Non-toxic” in the data set with Mus musculus [4] and “Non-toxic” in the data set on Mus musculus [5]. In the data set on Mus musculus [3], the outcome was inactive.

For the molecule `COc1ccc(OCC(O)CN(C)CCC(Oc2ccc(C(F)(F)F)cc2)c2ccccc2)cc1` (stereo not drawn), the Activity in the data set on Mus musculus [1] is reported as 52%; in the data set on Mus musculus [2] it was “Non-toxic”; in the data set on Mus musculus [4] it was “Non-toxic”; with Mus musculus [5] it was “Non-toxic”. The outcome in the data set on Mus musculus [3] was inactive.

Regarding `CN(CCC(Oc1ccc(C(F)(F)F)cc1)c1ccccc1)CC(O)COc1ccc(Br)cc1` (stereo not drawn), the Activity is reported as 60% in the data set on Mus musculus [1], “Non-toxic” with Mus musculus [2], “Non-toxic” in the data set with Mus musculus [4] and “Non-toxic” in the data set on Mus musculus [5]. For the same molecule, the result in the data set with Mus musculus [3] was inactive.

Consider `CC(=O)c1ccc(OCC(O)CN(C)CCC(Oc2ccc(C(F)(F)F)cc2)c2ccccc2)cc1` (stereo not drawn), for which the Activity is 32% in the data set with Mus musculus [1], “Non-toxic” in the data set with Mus musculus [2], “Non-toxic” in the data set with Mus musculus [4] and “Non-toxic” in the data set with Mus musculus [5]. Also, in the data set with Mus musculus [3], the result was inactive.

Take `CN(CCC(Oc1ccc(C(F)(F)F)cc1)c1ccccc1)CC(O)COc1cccc(C(F)(F)F)c1` (stereo not drawn): the Activity was 32% with Mus musculus [1], “Non-toxic” with Mus musculus [2], “Non-toxic” with Mus musculus [4] and “Non-toxic” with Mus musculus [5]. Also, the outcome in the data set on Mus musculus [3] was inactive.

In the case of `CCNc1ccc(OCC(O)CN(C)CCC(Oc2ccc(C(F)(F)F)cc2)c2ccccc2)cc1` (stereo not drawn), the Activity in the data set on Mus musculus [1] is 60%; with Mus musculus [2], “Non-toxic”; in the data set with Mus musculus [4], “Non-toxic”; with Mus musculus [5], “Non-toxic”. In addition, in the data set on Mus musculus [3], the outcome was inactive.

In the case of `CN(CCC(Oc1ccc(C(F)(F)F)cc1)c1ccccc1)CC(O)COc1ccc(C#N)cc1` (stereo not drawn), the Activity in the data set with Mus musculus [1] is given as 72%; in the data set on Mus musculus [2] it was “Non-toxic”; in the data set with Mus musculus [4] it was “Non-toxic”; in the data set on Mus musculus [5], “Non-toxic”. For the same molecule, in the data set with Mus musculus [3], the outcome was Active.

On to `Cc1ccccc1OCC(O)CN(C)CCC(Oc1ccc(C(F)(F)F)cc1)c1ccccc1` (stereo not drawn), for which the Activity is reported as 60% in the data set on Mus musculus [1], “Non-toxic” with Mus musculus [2], “Non-toxic” with Mus musculus [4] and “Non-toxic” in the data set on Mus musculus [5]. Also, the result with Mus musculus [3] was inactive.

For `COc1ccccc1OCC(O)CN(C)CCC(Oc1ccc(C(F)(F)F)cc1)c1ccccc1` (stereo not drawn), the Activity with Mus musculus [1] was 56%; in the data set with Mus musculus [2], “Non-toxic”; with Mus musculus [4], “Non-toxic”; in the data set on Mus musculus [5], “Non-toxic”. Further, in the data set on Mus musculus [3], the outcome was inactive.

Consider `CN(CCC(Oc1ccc(C(F)(F)F)cc1)c1ccccc1)CC(O)COc1ccc(Cl)cc1` (stereo not drawn), for which the Activity in the data set on Mus musculus [1] is 28%; with Mus musculus [2] it was “Non-toxic”; with Mus musculus [4], “Non-toxic”; in the data set with Mus musculus [5], “Non-toxic”. Further, in the data set on Mus musculus [3], the result was inactive.

For `CNCCC(Oc1ccc(C(F)(F)F)cc1)c1ccccc1` (stereo not drawn) [FLUOXETINE], the Activity came to 72% in the data set on Mus musculus [1], 100% in the data set on Mus musculus [2] and 100% in the data set with Mus musculus [5].

Take `CC(=O)Nc1ccc(OCC(O)CN(C)CCC(Oc2ccc(C(F)(F)F)cc2)c2ccccc2)cc1` (stereo not drawn): the Activity in the data set on Mus musculus [1] is on record as 60%; with Mus musculus [2], “Non-toxic”; in the data set with Mus musculus [4] it was “Non-toxic”; in the data set on Mus musculus [5], “Non-toxic”. Further, the result in the data set with Mus musculus [3] was inactive.

In the case of `CN(CCC(Oc1ccc(C(F)(F)F)cc1)c1ccccc1)CC(O)COc1ccc(C(F)(F)F)cc1` (stereo not drawn), the Activity with Mus musculus [1] is 32%; in the data set with Mus musculus [2], “Non-toxic”; in the data set with Mus musculus [4], “Non-toxic”; in the data set with Mus musculus [5] it was “Non-toxic”. Also, the result with Mus musculus [3] was inactive.
